Assay results reported in the OPERA property sets (Mansouri et al. 2018).

logP | Compound
1.89 | Cc1cc(=S)ss1
3.57 | S=c1ssc2ccccc12
3.15 | CCc1ssc(=O)c1-c1ccccc1
3.75 | S=c1ssc2c1CCCCCC2
3.18 | CCCc1cssc1=S
2.24 | CCCc1cc(=O)ss1
3.01 | O=c1cc(-c2ccccc2)ss1
0.82 | O=c1ccss1
3.73 | Cc1ccc(-c2cssc2=S)cc1
2.45 | Cc1ssc(=S)c1C
3.7 | CCCCc1cssc1=S
2.93 | Cc1ssc(=O)c1-c1ccccc1
1.69 | CCc1cc(=O)ss1
2.73 | O=c1ssc2ccccc12
4.1 | COc1ccc(-c2ssc(=S)c2C)cc1
3.51 | CCc1ssc(=S)c1CC
3.2 | S=c1sscc1-c1ccccc1
1.33 | Cc1cssc1=O
3.52 | CCc1ssc(=S)c1-c1ccccc1
4.26 | Cc1ccc(-c2cc(=S)ss2)cc1
3.67 | S=c1cc(-c2ccccc2)ss1
2.96 | CCCc1c(C)ssc1=O
2.64 | O=c1sscc1-c1ccccc1
1.9 | CCc1cssc1=O

logP | Compound
3.39 | CCCc1c(C)ssc1=S
2.4 | O=c1ssc2c1CCCC2
1.26 | Cc1cc(=O)ss1
3.42 | CCCc1ssc(=S)c1C
1.73 | Cc1ssc(=O)c1C
2.53 | S=c1ssc2c1CCC2
3.95 | Cc1c(-c2ccccc2)ssc1=S
3.76 | CCCc1ssc(=S)c1CC
2.78 | CCc1ssc(=O)c1CC
3.17 | Cc1ssc(=S)c1-c1ccccc1
2.31 | CCc1cc(=S)ss1
2.95 | CCc1ssc(=S)c1C
4.06 | CCCCCc1cssc1=S
2.18 | Cc1cssc1=S
2.67 | CCc1cssc1=S
2.94 | CCc1c(C)ssc1=S
3.78 | Cc1ssc(=S)c1Cc1ccccc1
2.38 | CCCc1cssc1=O
1.58 | S=c1ccss1
3.82 | COc1ccc(-c2cc(=S)ss2)cc1
3.27 | S=c1ssc2c1CCCCC2
3.43 | S=c1cc(Cc2ccccc2)ss1
2.83 | CCCc1cc(=S)ss1
